Experimental data published in the OPERA property sets (Mansouri et al. 2018).

Settings: not given
`CC(=O)OCCOC(C)=O` showed a boiling point of 190 °C, a log10 vapour pressure (mmHg) of -1.11 and a melting point of -31 °C. The ready biodegradability was “readily biodegradable”. Compound `C=CC1CC2C=CC1C2` (stereo not drawn) has a boiling point of 140 °C, a log10 vapour pressure (mmHg) of 0.992 and a melting point of -80 °C. For `Brc1c(Br)c(Br)c(-c2c(Br)c(Br)c(Br)c(Br)c2Br)c(Br)c1Br`, the log10 vapour pressure (mmHg) was -9.4, the melting point was 375 °C and the ready biodegradability was “not readily biodegradable”. In the case of `CCN(CC)C(=O)c1cccnc1`, the boiling point is reported as 298 °C and the melting point is reported as 25 °C. Compound `CNC(C)C` has a boiling point of 50.4 °C. `O=Cc1c(F)c(F)c(F)c(F)c1F` gave a boiling point of 167 °C and a melting point of 20 °C. `CCCOCC(C)OCC(C)O` (stereo not drawn) gave a boiling point of 212 °C and a melting point of 7.08 °C. In the case of `c1ccc2c(Oc3cccc4ccccc34)cccc2c1`, the melting point is reported as 110 °C. `C=CC(=O)OCC(C)C` gave a boiling point of 132 °C, a log10 vapour pressure (mmHg) of 0.907 and a melting point of -61 °C. `CCCCCCCCCCC(Br)C(=O)O` (stereo not drawn) showed a melting point of 32 °C. In the case of `CCCCCCCCCCCCCCCCO`, the boiling point is reported as 334 °C, the log10 Koa is reported as 9.9 and the log10 vapour pressure (mmHg) is reported as -5.22. For the same compound, the melting point was 49.3 °C and the ready biodegradability was “readily biodegradable”. For `CCN(CCO)CCO`, the boiling point was 247 °C, the melting point was -50 °C and the ready biodegradability was “not readily biodegradable”. `O=C(O)C(F)(F)C(F)(F)C(F)(F)F` showed a boiling point of 121 °C, a log10 vapour pressure (mmHg) of 0.804 and a melting point of -17.5 °C. In the case of `Cc1ccnc(C)c1C`, the boiling point is reported as 192 °C. `CCC(C(=O)O)c1ccc(-c2ccccc2)cc1` (stereo not drawn) gave a melting point of 124 °C. In the case of `c1cc2c3c(cccc3c1)CC2`, the boiling point is reported as 279 °C, the log10 Henry constant (atm·m³/mol) is reported as -3.74 and the log10 Koa is reported as 6.31. The log10 Koc (L/kg) was 3.59, the log10 biodegradation half-life (days) was 1.59 and the log10 vapour pressure (mmHg) was -2.67. For the same compound, the melting point was 93.4 °C and the ready biodegradability was “not readily biodegradable”. In the case of `c1ccc2cc3ccccc3cc2c1`, the boiling point is reported as 340 °C, the log10 Henry constant (atm·m³/mol) is reported as -4.25 and the log10 Koa is reported as 7.55. The log10 Koc (L/kg) was 4.31, the log10 biodegradation half-life (days) was 2.09 and the log10 vapour pressure (mmHg) was -5.19. For the same compound, the melting point was 215 °C and the ready biodegradability was “not readily biodegradable”. For `CC(C)COCCOCCO`, the boiling point was 217 °C. With `CC(=O)O[C@]1(C(C)=O)CC[C@H]2[C@@H]3C=C(Cl)C4=CC(=O)C=C[C@]4(C)[C@H]3CC[C@@]21C` the melting point was 168 °C. In the case of `CC(=O)c1ccc(I)cc1`, the melting point is reported as 86 °C. Compound `CCOP(=S)(OCC)SCS(=O)(=O)C(C)(C)C` has a log10 Koc (L/kg) of 2.18. For `CC1=C(/C=C/C(C)=C/C=C/C(C)=C/C=O)C(C)(C)CC=C1`, the melting point was 77.5 °C. With `Clc1cccc(-c2cc(Cl)c(Cl)cc2Cl)c1` the log10 Henry constant (atm·m³/mol) was -4. For `Clc1cc2c(cc1Cl)Oc1c(Cl)c(Cl)cc(Cl)c1O2`, the log10 vapour pressure (mmHg) was -9.23 and the melting point was 206 °C. In the case of `CC1(C)C(=O)N(Br)C(=O)N1Cl`, the melting point is reported as 164 °C. With `CC=C1CC2C=CC1C2` (stereo not drawn) the boiling point was 146 °C and the ready biodegradability was “not readily biodegradable”. Work on `CC(C)OP(=O)(OC(C)C)OC(C)C` yielded a boiling point of 219 °C. With `CCCNC(=O)OCC` the boiling point was 192 °C. `CC(=O)Oc1ccccc1` gave a boiling point of 196 °C, a log10 vapour pressure (mmHg) of -0.4 and a melting point of -30 °C. With `COc1ccccc1NC(N)=S` the melting point was 156 °C. In the case of `O=C(O)c1cc(F)c(F)c(F)c1F`, the melting point is reported as 86 °C. For `Nc1ccc([N+](=O)[O-])cc1[N+](=O)[O-]`, the boiling point was 334 °C, the melting point was 180 °C and the ready biodegradability was “not readily biodegradable”. Work on `CCCc1ccccc1N` yielded a boiling point of 226 °C. For `O=C(/C=C/c1ccc([N+](=O)[O-])cc1)c1ccccc1`, the melting point was 159 °C. Compound `Cl[C@@H]1CCCC[C@H]1Cl` has a boiling point of 200 °C and a melting point of -1.5 °C. `COc1ccc2c(c1)C(=O)N(CCc1ccc(S(=O)(=O)NC(=O)NC3CCCCC3)cc1)C(=O)C2(C)C` showed a melting point of 181 °C. In the case of `[O-][n+]1cccc(O)c1`, the melting point is reported as 191 °C. Compound `CC1(C)CC(=O)NC(=O)C1` has a melting point of 145 °C. Compound `CCOc1ccc(C)cc1` has a boiling point of 188 °C. For `O=C(Nc1ccccc1)c1ccccc1`, the melting point was 163 °C. Work on `CC1(C)C2CC3OC3(C)C1C2` (stereo not drawn) yielded a boiling point of 185 °C and a log10 vapour pressure (mmHg) of -0.0872. In the case of `Brc1cc(Br)c(Br)c(Oc2ccc(Br)c(Br)c2Br)c1`, the ready biodegradability is reported as “not readily biodegradable”. In the case of `O=C=Nc1ccc(Cc2ccc(N=C=O)cc2)cc1`, the melting point is reported as 38 °C. With `BrC=Cc1ccccc1` the melting point was 7 °C and the ready biodegradability was “not readily biodegradable”. `Brc1cccc2c1Oc1cccc(Br)c1O2` gave a log10 vapour pressure (mmHg) of -5.95 and a melting point of 207 °C. Work on `C[C@]12Cc3nonc3C[C@@H]1CC[C@@H]1[C@@H]2CC[C@@]2(C)[C@H]1CC[C@]2(C)O` yielded a melting point of 152 °C. Work on `CC(CCCl)OCCCl` (stereo not drawn) yielded a boiling point of 195 °C. In the case of `CN1CCCC1`, the boiling point is reported as 81 °C, the log10 Henry constant (atm·m³/mol) is reported as -4.52 and the log10 Koa is reported as 3.64. It also gave a log10 vapour pressure (mmHg) of 2. For `CC(Cl)Br` (stereo not drawn), the boiling point was 83 °C and the log10 vapour pressure (mmHg) was 1.93. In the case of `C=Cc1ccc(C)nc1`, the boiling point is reported as 181 °C and the log10 vapour pressure (mmHg) is reported as 0.0719. Compound `CCCC#CCCCCCC` has a boiling point of 198 °C and a melting point of -74.7 °C. `CC1=CC(=O)C=C(C)C1=O` showed a melting point of 72.5 °C. With `Clc1ccc(Oc2ccccc2Cl)c(Cl)c1` the log10 vapour pressure (mmHg) was -3.73.

Same assay, conditions: fish
Compound `c1ccc(Nc2ccc3ccccc3c2)cc1` has a log10 BCF of 2.37 and a log10 biotransformation half-life (days) of -0.41. `Brc1ccc(Oc2ccc(Br)c(Br)c2)c(Br)c1` showed a log10 BCF of 6.05. `CCCCCCCCN(CCCCCCCC)CCCCCCCC` showed a log10 BCF of 1.93. Compound `Brc1c(Br)c(Br)c(-c2c(Br)c(Br)c(Br)c(Br)c2Br)c(Br)c1Br` has a log10 BCF of 5.19. Compound `c1cc2c3c(cccc3c1)CC2` has a log10 BCF of 2.88. For `c1ccc2cc3ccccc3cc2c1`, the log10 BCF was 3.26 and the log10 biotransformation half-life (days) was 0.65. With `CC=C1CC2C=CC1C2` (stereo not drawn) the log10 BCF was 2.04 and the log10 biotransformation half-life (days) was -0.56.
